Drawing on PMC12263422, “Cryo-EM structure of the human THIK-1 K2P K^+ channel reveals a lower Y gate regulated by lipids and anesthetics” (Nature Structural & Molecular Biology, 2025), this text covers Normalized currents, IC50 and EC50 for 2 compounds.

Molecules are shown by their SMILES. “And” between values parts separate entries of the source, which are not always exact repeats. Identical values can stand only once. Like-named read-outs stand apart in the source and are kept apart here.

One test deals with T1, THIK-1 V269A (Homo sapiens, UniProt Q9HB14, V269A).
T1 construct: expressed in transfected cells; host or cells: Xenopus oocytes (mRNA injection)
T1 sequence (Q9HB14 1-408 V269A): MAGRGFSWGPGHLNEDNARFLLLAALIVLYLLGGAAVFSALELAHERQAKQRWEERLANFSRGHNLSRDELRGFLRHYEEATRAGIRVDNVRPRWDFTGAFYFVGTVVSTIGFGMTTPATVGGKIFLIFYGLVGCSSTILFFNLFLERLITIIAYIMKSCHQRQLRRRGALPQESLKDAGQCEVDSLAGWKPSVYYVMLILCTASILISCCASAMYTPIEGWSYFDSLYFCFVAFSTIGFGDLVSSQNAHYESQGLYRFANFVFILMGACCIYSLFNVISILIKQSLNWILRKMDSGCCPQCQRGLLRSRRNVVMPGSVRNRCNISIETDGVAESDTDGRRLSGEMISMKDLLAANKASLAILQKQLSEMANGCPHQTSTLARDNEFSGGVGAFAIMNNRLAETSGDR
Put plainly: Inside-out excised patch recordings, oocytes, THIK-1 V269A mutant. It is filed as cell-based. The settings on record: for IC50: read-out: TPenA IC50. An excerpt: Human K2P13.1 THIK-1 (GenBank accession number: NM_022054) and human K2P12.1 THIK-2 (NM_022055.1) were used in this study. For functional expression studies, the respective K^+ channel subtype coding sequences were subcloned into the oocyte expression vector pSGEM or the dual-purpose expression vector pFAW[41] and verified by sequencing. All mutant channels were obtained by site-directed mutagenesis and verified by sequencing. To increase surface expression and macroscopic currents, measurements of THIK-2 channels used a mutated ER retention motif, (R11A R12A R14A R15A R16A; THIK-2*)[20]. Vector DNA was linearized with NheI or MluI, and mRNA was synthesized in vitro using the SP6 or T7 AmpliCap Max High Yield Message Maker Kit (Cellscript, USA) or HiScribe T7 ARCA mRNA Kit (New England Biolabs).
Two-electrode voltage–clamp (TEVC) studies were performed in Xenopus oocytes. All animal use conformed to the Guide for the Care and Use of Laboratory Animals (NIH Publication 85–23), and all experiments using Xenopus toads were approved by the local ethics panels. Oocytes were stored at 17 °C in ND96 recording solution composed of (in mM): 96 NaCl, 2 KCl, 1.8 CaCl2, 1 MgCl2, 5 HEPES (pH 7.5 adjusted with NaOH and HCl), supplemented with Na-pyruvate (275 mg L^–1), theophylline (90 mg L^–1) and gentamicin (50 mg L^–1). Oocytes were injected with 1 ng mRNA for WT or mutant channels, and were incubated for 24–48 h at 17 °C. Two-electrode voltage clamp recordings were then performed as previously described[42],[43]. For macroscopic patch–clamp measurements, oocytes were obtained as described above incubated at 17 °C in a solution containing (mM): 54 NaCl, 30 KCl, 2.4 NaHCO3, 0.82 MgSO4 ×7 H2O, 0.41 CaCl2, 0.33 Ca(NO3)2 ×4 H2O and 7.5 TRIS (pH 7.4 adjusted with NaOH and HCl) for 1–4 days before use. Excised patch recordings in inside-out configuration conditions were performed at room temperature. Patch pipettes were made from thick-walled borosilicate glass GB 200TF-8P (Science Products), had resistances of 0.2–0.5 MΩ (tip diameter, 10–25 µm) and filled with a pipette solution (in mM): 120 KCl, 10 HEPES and 3.6 CaCl2 (pH 7.4 adjusted with KOH and HCl). Intracellular bath solutions and compounds were applied to the cytoplasmic side of excised patches for the various K^+ channels through a gravity flow multi-barrel pipette system. The intracellular solution had the following composition (in mM): 120 KCl, 10 HEPES, 2 EGTA and 1 pyrophosphate (pH adjusted with KOH and HCl). Currents were recorded with an EPC10 amplifier (HEKA Electronics) and sampled at 10 kHz or higher, with filtering set to 3 kHz (–3 dB) or higher, as appropriate for sampling rate. For measurements of GPCR activation, whole-cell currents were recorded for THIK-1 in transiently transfected HEK-293 cells. Cells were stimulated by a ramp protocol between −100 and +60 mV (holding potential, −80 mV). The pipette solution was composed of (in mM): 140 KCl, 2 MgCl2, 1 CaCl2, 2.5 EGTA and 10 HEPES (pH 7.3 adjusted with KOH and HCl). The extracellular bath solution had the following composition (in mM): 135 NaCl, 5 KCl, 2 MgCl2, 2 CaCl2, 10 glucose and 10 HEPES pH (pH 7.3 adjusted with NaOH and HCl). Oxotremorine M (Oxo-M) was added to extracellular bath solution to obtain the final concentration. Single-channel currents were recorded with an Axopatch 200B amplifier through a Digidata 1440A digitizer (Molecular Devices). Data were filtered at 2 kHz and recorded at a 200-kHz sampling rate with the program Clampex (Molecular Devices). Pipette solution and bath solution for cell-attached recordings contained (in mM): 140 KCl, 2 MgCl2, 1 CaCl2 and 10 HEPES (pH 7.4 adjusted with KOH and HCl). For inside-out recordings, the bath solution contained (in mM): 140 KCl, 2 MgCl2, 1 CaCl2 and 10 HEPES (pH 7.2 adjusted with KOH and HCl). All experiments were conducted at room temperature. […]

The target of a further test is T2, THIK-1 N261A (Homo sapiens, UniProt Q9HB14, N261A).
T2 construct: expressed in transfected cells; host or cells: Xenopus oocytes (mRNA injection)
Kind of test: Inside-out excised patch recordings, oocytes, THIK-1 N261A mutant (lipid activation). The format is cell-based. The following applies: read-out: Linoleic acid EC50. An excerpt: Supplement 41594_2025_1497_MOESM2_ESM.xlsx, sheet "ExtData_Fig_S5f" | column: Linoleic acid EC50 (µM); N261A

T2 sequence (Q9HB14 whole entry N261A): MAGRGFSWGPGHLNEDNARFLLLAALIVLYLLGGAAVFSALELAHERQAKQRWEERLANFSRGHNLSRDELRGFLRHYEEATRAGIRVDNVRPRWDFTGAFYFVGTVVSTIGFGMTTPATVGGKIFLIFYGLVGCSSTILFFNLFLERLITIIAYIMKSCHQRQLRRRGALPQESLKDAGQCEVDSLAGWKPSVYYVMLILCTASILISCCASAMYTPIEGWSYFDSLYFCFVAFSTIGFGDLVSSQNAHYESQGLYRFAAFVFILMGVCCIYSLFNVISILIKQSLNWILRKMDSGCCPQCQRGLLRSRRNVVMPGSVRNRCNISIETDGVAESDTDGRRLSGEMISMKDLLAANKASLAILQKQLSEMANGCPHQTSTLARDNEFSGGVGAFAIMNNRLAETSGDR

With `CCCCC[N+](CCCCC)(CCCCC)CCCCC` [TPenA, tetrapentylammonium], the Normalized currents at THIK-1 V269A (THIK-1 V269A, 1 µM TPenA) is recorded as 1.00; at THIK-1 V269A (THIK-1 V269A, 4 µM TPenA), 0.97; on THIK-1 V269A (THIK-1 V269A, 15.6 µM TPenA) it was 0.93; on THIK-1 V269A (THIK-1 V269A, 62.5 µM TPenA), 0.87; on THIK-1 V269A (THIK-1 V269A, 250 µM TPenA), 0.78; at THIK-1 V269A (THIK-1 V269A, 1000 µM TPenA), 0.65. The Normalized currents at THIK-1 V269A (THIK-1 V269A, 4000 µM TPenA) is listed as 0.45. In addition, the IC50 on THIK-1 V269A (THIK-1 V269A, mean) was determined as 2200 µM; on THIK-1 V269A (V269A mutant), 2200 µM.
For the compound `CCCCC/C=C\C/C=C\CCCCCCCC(=O)O` [linoleic acid], the EC50 at THIK-1 N261A (individual recordings) was 92.8 µM and 196 µM and 39.8 µM and 91.8 µM and 102 µM and 140 µM; on THIK-1 N261A (mean) it was 110 µM.

For orientation: IC50 means the concentration that gives 50% inhibition. As usually defined, the EC50 is the midpoint of the concentration-response curve.
